Measured values reported in patent US7838493B2, “Acetylcholinesterase (ACHE)-derived peptide as an inducer of granulocytopoiesis, uses and methods thereof” (priority 2004, dated 2010).

Tested on: human CD34+ hematopoietic stem cells
Experiment: Ex vivo expansion of CD34+ cells in liquid culture, flow cytometric immunophenotyping
Type: cell-based
Procedure: Mean fluorescence intensity (MFI) served as a measure of AChE-R content in analyzed cells. When multiplied by the percent fractions of AChE-R-positive cells, the MFI values reflected the total content of AChE-R in the analyzed blood cell samples. Myeloid markers of maternal blood cells were analyzed by the following combination of monoclonal antibodies: anti-CD15-FITC (Dako, Glostrup Denmark), anti-CD33-PE (BD Bioscience, Palo Alto, Calif.), anti-CD45-PerCP (BD Bioscience, Palo Alto, Calif.) and anti-CD14-APC (Caltag, Burlingame, Calif.). Corresponding MFI values reflected the amount of receptor on the surface of granulocytes and monocytes. Expanded CD34+ cells were analyzed by 4-color flow cytometry with FITC-conjugated anti-CD15 and PE-conjugated anti-CD33, PerCP-conjugated anti-CD34, and APC-conjugated anti-CD38 (all antibodies purchased from BD Bioscience, Palo Alto, Calif.) using a FACSCalibur with CellQuest software (BD Bioscience, Palo Alto, Calif.). Relevant isotype control antibodies were used to detect non-specific background fluorescence. The total number of expanded cells for each lineage was calculated by multiplying their relative proportions by the number of viable cells in each culture.
PBAN (a negative control insect peptide) [Nijholt (2003) id ibid.] were also used for cell expansion. […] […] At 3-day intervals, cultures were supplemented with the same growth factor(s) and cells were counted by trypan blue exclusion and diluted to maintain cultures at concentrations no higher then 100,000 cells/mL [Pick M. et al. (2002) Exp. Hematol. 30:1079]. Cultured cells were injected into NOD/SCID mice at a concentration of 100,000 or 200,000 together with 100,000 unexpanded CD34+ cells per mouse as indicated.
Peptide controls (ASP40 and PBAN) were used to explore the specificity of this response.

[1] = Table 4b, cortisol (1.2 nM), day 14

## C[C@]12CCC(=O)C=C1CC[C@@H]1[C@@H]2[C@@H](O)C[C@@]2(C)[C@H]1CC[C@]2(O)C(=O)CO [Cortisol, cortisol]
CD34+ cells, 2-week incubation, versus control
  total number of cells: not
Table 4a, cultured CD34+ cells, cortisol 1.2 μM, viable cells/ml at day 14 divided by seeded cells (50,000)
  Cell expansion index: 1.55 ± 0.07
Table 4b, typical CD34+ culture, cortisol (1.2 nM), day 14
  Cell expansion index: 1.6
[1]
  CD33+ CD15+ Granulocytes: 28.5 cell counts × 10^3
  CD33+ CD15− Immature myeloids: 13.0 cell counts × 10^3
  CD33− CD15+ Mature granulocytes: 15.4 cell counts × 10^3
  CD34+ CD33+ Committed myeloids: 10.6 cell counts × 10^3
  CD34+ CD38+ Committed progenitors: 11.0 cell counts × 10^3
